Read-outs that look alike come from different tables or passages of the source.

Common to all, as to type: in vivo
Data set [1] deals with Plutella xylostella. Briefly: Efficacy test against Plutella xylostella (cabbage leaf immersion). The following applies: 72 h. As to the method:
The emulsion (II) was diluted with water at the same dilution ratio as the diluted solution (I), thereby obtaining a diluted solution (II). A cabbage leaf was immersed in each of the diluted solutions for 30 seconds. Each cabbage leaf after immersion was air-dried and then put in a petri dish, followed by leaving five second-instar larvae of Plutella xylostella therein. The petri dishes were placed in a thermostatic chamber at a temperature of 25°C and a humidity of 60%. After three days had passed from leaving the larvae, life or death was assessed and the mortality was calculated. The test was repeated twice.

In data set [2] the test system is Spodoptera litura. Briefly: Efficacy test against Spodoptera litura (cabbage leaf immersion). The conditions noted are these: 144 h, read-out: mortality of Spodoptera litura. On the procedure: A cabbage leaf was immersed in the diluted solution for 30 seconds. The cabbage leaf was air-dried and then put in a petri dish, followed by leaving five second-instar larvae of Spodoptera litura therein. The petri dish was placed in a thermostatic chamber at a temperature of 25°C and a humidity of 60%. After six days had passed from leaving the larvae, life or death was assessed and the mortality was calculated. The test was repeated twice.

The subject of data set [3] is Mythimna separata. Briefly: Efficacy test against Mythimna separata (treated artificial feed). The conditions noted are these: 1 µl of emulsion (I) (5% by mass active ingredient) mixed with 0.8 g artificial feed; second-instar larvae; 25°C; after five days. As to the method: (§1) 5 parts by mass of a compound of the present invention, 93.6 parts by mass of dimethylformamide, and 1.4 parts by mass of polyoxyethylene alkyl aryl ether were mixed and dissolved to obtain an emulsion (I) containing 5% by mass of the active ingredient.
0.8 g of commercially-available artificial feed (Insect LFS, manufactured by Nosan Corporation) and 1 µl of the emulsion (I) were mixed well, and then 0.2 g of the mixture per treated area was packed into plastic test containers (each having a capacity of 1.4 ml) as test feeds.
Two second-instar larvae of Mythimna separata were left per treated area, and then the test containers were sealed with plastic covers. The test containers were placed in a thermostatic chamber at 25°C, and, after five days had passed therefrom, the mortality and the feed intake were measured. The test was repeated twice.
In addition, the test was carried out under the same conditions as described above, except that the emulsion (II) was used instead of the emulsion (I), and evaluated as a solvent control area.

Data set [4] has as its system Phyllotreta striolata. Briefly: Efficacy test against Phyllotreta striolata (sprayed bok-choy seedling). The conditions noted are these: 168 h, read-out: mortality against the adults of Phyllotreta striolata. As to the method:
as §1
The emulsion (I) was diluted with water such that the concentration of the compound of the present invention became 125 ppm by mass. The diluted solution was sprayed to a bok-choy seedling (at the 7th leafe stage) planted in a 3-sun pot. After air-dried, the bok-choy seedling was placed in a plastic cup, and ten adults of Phyllotreta striolata were left therein. The plastic cup was placed in a thermostatic chamber at a temperature of 25°C and a humidity of 65%. After seven days had passed from leaving the adults, life or death was assessed and the mortality was calculated. The test was repeated twice.

Setting [5] is: 125 ppm by mass, cabbage leaf immersed 30 seconds, second-instar larvae of Plutella xylostella, 25°C, humidity 60%, after three days, read-out: mortality.
[6] abbreviates: 125 ppm by mass, cabbage leaf immersed 30 seconds, second-instar larvae, 25°C, humidity 60%, after six days.

Take `O=C([N-][n+]1ccccc1)c1cc(Oc2ccc(SC(F)(F)C(F)F)cc2)nc(-n2cccn2)c1` [Compound 221]: the mortality at 125 ppm in data set [1] (setting [5]) and in data set [2] (setting [6]) was no less than 80% in each case. For the compound `O=C([N-][n+]1ccccc1)c1cc(Oc2ccc(OC(F)(F)F)cc2)nc(Oc2ccc(OC(F)(F)F)cc2)c1` [Compound 208], the mortality at 125 ppm in data set [1] (setting [5]) and in data set [2] (setting [6]) was no less than 80% each time.

Consider `O=C([N-][n+]1ccccc1)c1cc(Br)nc(Oc2ccc(OC(F)(F)C(F)(F)F)cc2)c1` [Compound 12], for which the mortality at 125 ppm in data set [1] (setting [5]) and in data set [2] (setting [6]) was no less than 80% throughout. As to `O=C([N-][n+]1ccccc1)c1cc(Cl)nc(Oc2ccc(C3CC3(F)F)cc2)c1` (stereo not drawn) [Compound 213], the “mortality of Mythimna separata or feed intake relative to the feed intake at the solvent control area” value in data set [3] was 100% mortality of Mythimna separata or 10% or less of the feed intake. For the compound `COc1cc[n+]([N-]C(=O)c2cc(Cl)nc(Oc3ccc(OC(F)(F)C(F)(F)F)cc3)c2)cc1` [Compound 6], the mortality at 125 ppm in data set [1] (setting [5]) and in data set [2] (setting [6]) was no less than 80% throughout. Turning to `COC(=O)c1cc(C(=O)[N-][n+]2ccccc2)cc(Oc2ccc(OC(F)(F)C(F)(F)F)cc2)n1` [Compound 220], the mortality at 125 ppm in data set [1] (setting [5]) is no less than 80%. Take `O=C([N-][n+]1ccccc1)c1cc(Cl)nc(Oc2cnn(C=C(F)C(F)(F)F)c2)c1` [Compound 217]: the mortality at 125 ppm in data set [2] (setting [6]) is no less than 80%. As for `O=C([N-][n+]1ccccc1)c1cc(Cl)nc(Oc2ccc(OC(F)(F)C(F)OC(F)(F)C(F)(F)C(F)(F)OC(F)(F)F)cc2)c1` (stereo not drawn) [Compound 22], the mortality at 125 ppm in data set [1] (Plutella xylostella), in data set [4] and in data set [2] was no less than 80% in each case. With `O=C([N-][n+]1ccccc1)c1cc(Oc2ccc(OC(F)(F)C(F)(F)F)cc2)nc(C2CC2)c1` [Compound 215, (2-cyclopropyl-6-(4-(perfluoroethoxy)phenoxy)isonicotinoyl)(pyridin-1-ium-1-yl)amide], the “mortality of Mythimna separata or feed intake relative to the feed intake at the solvent control area” value in data set [3] was 100% mortality of Mythimna separata or 10% or less of the feed intake. Besides, the mortality at 125 ppm in data set [1] (setting [5]) and in data set [2] (setting [6]) was no less than 80% throughout. Take `O=C([N-][n+]1ccccc1)c1cc(Br)nc(Oc2ccc(OC(F)(F)C(F)F)cc2)c1` [Compound 13]: the mortality at 125 ppm in data set [1] (setting [5]) and in data set [2] (setting [6]) was no less than 80% in each case.

For `N#Cc1cc(C(=O)[N-][n+]2ccccc2)cc(Oc2ccc(OC(F)(F)C(F)(F)F)cc2)n1` [Compound 14], the mortality at 125 ppm in data set [1] (setting [5]) and in data set [2] (setting [6]) was no less than 80% each time. Consider `N#Cc1ccc(Oc2cc(C(=O)[N-][n+]3ccccc3)cc(Cl)n2)cc1` [Compound 209], for which, in data set [3], the “mortality of Mythimna separata or feed intake relative to the feed intake at the solvent control area” value is 100% mortality of Mythimna separata or 10% or less of the feed intake. In the case of `CCn1c[n+]([N-]C(=O)c2cc(Cl)nc(Oc3ccc(C4CC4(F)F)cc3)c2)cn1` (stereo not drawn) [Compound 212], the “mortality of Mythimna separata or feed intake relative to the feed intake at the solvent control area” value in data set [3] was 100% mortality of Mythimna separata or 10% or less of the feed intake.

Take `CCn1c[n+]([N-]C(=O)c2cc(Cl)nc(Oc3ccc(OC(F)(F)F)cc3)c2)cn1` [Compound 165, (2-chloro-6-(4-(trifluoromethoxy)phenoxy)isonicotinoyl)(1-ethyl-1H-1,2,4-triazol-4-ium-4-yl)amide]: the “mortality of Mythimna separata or feed intake relative to the feed intake at the solvent control area” value in data set [3] is reported as 100% mortality of Mythimna separata or 10% or less of the feed intake. In addition, the mortality at 125 ppm in data set [1] (setting [5]) and in data set [2] (setting [6]) was no less than 80% throughout. For `O=C([N-][n+]1cnn(CC(F)(F)F)c1)c1cc(Cl)nc(Oc2ccc(OC(F)(F)C(F)(F)F)cc2)c1` [Compound 17], the mortality at 125 ppm in data set [1] (setting [5]) and in data set [2] (setting [6]) was no less than 80% throughout. For `CCn1c[n+]([N-]C(=O)c2cc(Cl)nc(Oc3ccc(OC(F)(F)C(F)OC(F)(F)C(F)(F)C(F)(F)F)cc3)c2)cn1` (stereo not drawn) [Compound 21], the mortality at 125 ppm in data set [1] (Plutella xylostella), in data set [4] and in data set [2] was no less than 80% each time. As to `O=C([N-][n+]1ccccc1)c1cc(Cl)nc(Oc2ccc(OC(F)(F)C(F)OC(F)(F)F)cc2)c1` (stereo not drawn) [Compound 16], the mortality at 125 ppm in data set [1] (setting [5]) and in data set [2] (setting [6]) was no less than 80% in each case.

For the compound `CCn1c[n+]([N-]C(=O)c2cc(I)nc(Oc3ccc(OC(F)(F)C(F)(F)F)cc3)c2)cn1` [Compound 218], the mortality at 125 ppm is no less than 80% in data set [1] (setting [5]); no less than 80% in data set [4] (125 ppm by mass, sprayed to bok-choy seedling, adults, 25°C, humidity 65%, after seven days); no less than 80% in data set [2] (setting [6]). `O=C([N-][n+]1ccccc1)c1cc(Oc2ccc(OC(F)(F)F)cc2)nc(-c2ccc(F)cc2)c1` [Compound 207]: in data set [3], the “mortality of Mythimna separata or feed intake relative to the feed intake at the solvent control area” value is listed as 100% mortality of Mythimna separata or 10% or less of the feed intake. Further, the mortality at 125 ppm in data set [1] (setting [5]) and in data set [2] (setting [6]) was no less than 80% throughout.

For the compound `Cc1cc[n+]([N-]C(=O)c2cc(Cl)nc(Oc3ccc(OC(F)(F)C(F)(F)F)cc3)c2)cc1` [Compound 5], the mortality at 125 ppm in data set [1] (setting [5]) and in data set [2] (setting [6]) was no less than 80% in each case. As to `Cn1c[n+]([N-]C(=O)c2cc(Cl)nc(Oc3ccc(OC(F)(F)F)cc3)c2)cn1` [Compound 2], the “mortality of Mythimna separata or feed intake relative to the feed intake at the solvent control area” value in data set [3] is 100% mortality of Mythimna separata or 10% or less of the feed intake. Also, in data set [2] (setting [6]), the mortality at 125 ppm was no less than 80%.

Turning to `O=C([N-][n+]1ccccc1)c1cc(Cl)nc(Oc2ccc(OC(F)(F)C(F)F)cc2)c1` [Compound 4], in data set [3], the “mortality of Mythimna separata or feed intake relative to the feed intake at the solvent control area” value is reported as 100% mortality of Mythimna separata or 10% or less of the feed intake. Further, the mortality at 125 ppm in data set [1] (setting [5]) and in data set [2] (setting [6]) was no less than 80% each time. Take `O=C([N-][n+]1ccccc1)c1cc(Cl)nc(Oc2ccc(C3(C(F)(F)F)CC3)cc2)c1` [Compound 15]: the mortality at 125 ppm in data set [1] (setting [5]) and in data set [2] (setting [6]) was no less than 80% throughout. In the case of `CCn1c[n+]([N-]C(=O)c2cc(Cl)nc(Oc3ccc4nc(C(F)(F)F)ccc4c3)c2)cn1` [Compound 216], the “mortality of Mythimna separata or feed intake relative to the feed intake at the solvent control area” value in data set [3] is 100% mortality of Mythimna separata or 10% or less of the feed intake. Take `Cn1cc[n+]([N-]C(=O)c2cc(Cl)nc(Oc3ccc(OC(F)(F)C(F)(F)F)cc3)c2)c1` [Compound 9]: the mortality at 125 ppm in data set [1] (setting [5]) and in data set [2] (setting [6]) was no less than 80% each time. As for `Cn1c[n+]([N-]C(=O)c2cc(Cl)nc(Oc3ccc(OC(F)(F)C(F)(F)F)cc3)c2)cn1` [Compound 8], the mortality at 125 ppm in data set [2] (setting [6]) is no less than 80%.

For the compound `O=C([N-][n+]1cccc(F)c1)c1cc(Cl)nc(Oc2ccc(OC(F)(F)C(F)F)cc2)c1` [Compound 11], the mortality at 125 ppm in data set [1] (setting [5]) and in data set [2] (setting [6]) was no less than 80% each time. Regarding `CCn1c[n+]([N-]C(=O)c2cc(Cl)nc(Oc3ccc(C4CC4(Cl)Cl)cc3)c2)cn1` (stereo not drawn) [Compound 210], the “mortality of Mythimna separata or feed intake relative to the feed intake at the solvent control area” value in data set [3] is 100% mortality of Mythimna separata or 10% or less of the feed intake. Regarding `O=C([N-][n+]1cnn(CC(F)F)c1)c1cc(Cl)nc(Oc2ccc(OC(F)(F)C(F)(F)F)cc2)c1` [Compound 18], the mortality at 125 ppm in data set [1] (setting [5]) and in data set [2] (setting [6]) was no less than 80% in each case.

The term mortality denotes the share of the test organisms that died.

The record behind these values is patent EP4574818A1, “ONIUM SALT OF NITROGEN-CONTAINING HETEROARYL COMPOUND AND PEST CONTROL AGENT” (priority 2022, dated 2024).
